Test results reported in patent US12319664B2, “Herbicidally active 3-phenylisoxazoline-5-carboxamides of cyclopentenylcarboxylic acid derivatives” (Bayer Aktiengesellschaft, priority 2018, dated 2025).

How the values were obtained:
[1] = test system: ALOMY; assay: Post-emergence herbicidal action against ALOMY; format: in vivo, Alopecurus myosuroides; details: application rate 80 g/ha, rated visually after about 3 weeks
Method in brief: (§1)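 Activity was scored by eye roughly 3 weeks post-treatment relative to untreated plants, on a scale where 0% equals control and 100% equals dead plants. Treatment: spray onto green parts at one-leaf stage (2–3 weeks from sowing, sandy loam, greenhouse), WP/EC formulations with 0.5% additive, 600 l/ha water.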

[2] = test system: AVEFA; assay: Post-emergence herbicidal action against AVEFA; format: in vivo, Avena fatua; details: application rate 80 g/ha, rated visually after about 3 weeks
Method in brief: as §1

[3] = test system: ECHCG; assay: Post-emergence herbicidal action against ECHCG; format: in vivo, Echinochloa crus-galli; details: application rate 80 g/ha, rated visually after about 3 weeks
Method in brief: as §1

[4] = test system: LOLRI; assay: Post-emergence herbicidal action against LOLRI; format: in vivo, Lolium rigidum; details: application rate 80 g/ha, rated visually after about 3 weeks
Method in brief: as §1

[5] = test system: SETVI; assay: Post-emergence herbicidal action against SETVI; format: in vivo, Setaria viridis; details: application rate 80 g/ha, rated visually after about 3 weeks
Method in brief: as §1

[6] = test system: ABUTH; assay: Post-emergence herbicidal action against ABUTH; format: in vivo, Abutilon theophrasti; details: application rate 80 g/ha, rated visually about 3 weeks after treatment
Method in brief: as §1

[7] = test system: AMARE; assay: Post-emergence herbicidal action against AMARE; format: in vivo, Amaranthus retroflexus; details: application rate 80 g/ha, rated visually about 3 weeks after treatment
Method in brief: as §1

[8] = test system: MATIN; assay: Post-emergence herbicidal action against MATIN; format: in vivo, Matricaria inodora; details: application rate 80 g/ha, rated visually about 3 weeks after treatment
Protocol: [table] 2. Post-emergence herbicidal action against harmful plants and crop plant compatibility Seeds of monocotyledonous and dicotyledonous weeds and crop plants are placed in sandy loam in plastic or wood-fibre pots, covered with soil and cultivated in a greenhouse under controlled growth conditions. 2 to 3 weeks after sowing, the test plants are treated at the one-leaf stage. The compounds of the invention, formulated in the form of wettable powders (WP) or as emulsion concentrates (EC), are then sprayed onto the green parts of the plants as aqueous suspension or emulsion with addition of 0.5% additive at a water application rate of 600 l/ha (converted). After the test plants have been kept in the greenhouse under optimum growth conditions for about 3 weeks, the activity of the preparations is rated visually in comparison to untreated controls. For example, 100% activity=the plants have died, 0% activity=like control plants.

[9] = test system: PHBPU; assay: Post-emergence herbicidal action against PHBPU; format: in vivo, Pharbitis purpurea; details: application rate 80 g/ha, rated visually about 3 weeks after treatment
Method in brief: as §1

[10] = test system: POLCO; assay: Post-emergence herbicidal action against POLCO; format: in vivo, Polygonum convolvulus; details: application rate 80 g/ha, rated visually about 3 weeks after treatment
Method in brief: as §1

[11] = test system: STEME; assay: Post-emergence herbicidal action against STEME; format: in vivo, Stellaria media; details: application rate 80 g/ha, rated visually about 3 weeks after treatment
Method in brief: as §1

[12] = test system: VIOTR; assay: Post-emergence herbicidal action against VIOTR; format: in vivo, Viola tricolor; details: application rate 80 g/ha, rated visually about 3 weeks after treatment
Method in brief: as §1

[13] = test system: VERPE; assay: Post-emergence herbicidal action against VERPE; format: in vivo, Veronica persica; details: application rate 80 g/ha
Method in brief: as §1

[14] = test system: HORMU; assay: Post-emergence herbicidal action against HORMU; format: in vivo, Hordeum murinum; details: application rate 80 g/ha
Method in brief: as §1

| SMILES | Herbicidal action against [%] ALOMY [1] [%] | Herbicidal action against [%] AVEFA [2] [%] | Herbicidal action against [%] ECHCG [3] [%] | Herbicidal action against [%] LOLRI [4] [%] | Herbicidal action against [%] SETVI [5] [%] | Herbicidal action against [%] ABUTH [6] [%] | Herbicidal action against [%] AMARE [7] [%] | Herbicidal action against [%] MATIN [8] [%] | Herbicidal action against [%] PHBPU [9] [%] | Herbicidal action against [%] POLCO [10] [%] | Herbicidal action against [%] STEME [11] [%] | Herbicidal action against [%] VIOTR [12] [%] | Herbicidal action against [%] VERPE [13] [%] | Herbicidal action against [%] HORMU [14] [%] |
| --- | --- | --- | --- | --- | --- | --- | --- | --- | --- | --- | --- | --- | --- | --- |
| C=CC1(C(=O)NC2C=CC(C(=O)O)C2)CC(c2cc(F)cc(F)c2)=NO1 (mixture of isomers) [Example I-037] | 90 | 90 | 90 | 90 | 90 | 90 | 90 | 80 | 80 | 90 | 90 | 90 | 90 | 90 |
| CCOC(=O)C1C=CC(NC(=O)C2(C(F)(F)F)CC(c3cc(Cl)cc(Cl)c3)=NO2)C1 (mixture of isomers) [Example I-038] | 90 | 100 | 80 | 90 | 90 | 80 | 80 | 90 | 80 | 80 | 90 | 80 | 90 | 80 |
| C=CC1(C(=O)N[C@H]2C=C[C@@H](C(=O)OCC(F)(F)F)C2)CC(c2cc(F)cc(F)c2)=NO1 (stereo partly shown) [Example I-015] | 100 | 100 | 100 | 100 | 90 | 90 | 100 | 80 | – | 100 | 100 | 90 | 90 | 100 |
| C=CC1(C(=O)N[C@H]2C=C[C@@H](C(=O)OCC(F)F)C2)CC(c2cc(F)cc(F)c2)=NO1 (stereo partly shown) [Example I-016] | 100 | 90 | 100 | 100 | 90 | 90 | 90 | 80 | – | 90 | 100 | 80 | 90 | 90 |
| C=CC1(C(=O)N[C@H]2C=C[C@@H](C(=O)OCCC(F)(F)F)C2)CC(c2cc(F)cc(F)c2)=NO1 (stereo partly shown) [Example I-017] | 100 | 100 | 100 | 100 | 90 | 100 | 90 | 80 | – | 90 | 100 | 80 | 90 | 100 |
| COC(=O)[C@@H]1C=C[C@H](NC(=O)C2(OC)CC(c3cc(F)cc(F)c3)=NO2)C1 (stereo partly shown) [Example I-019] | 90 | 100 | 80 | 90 | 90 | 80 | 90 | 90 | – | 100 | 90 | 80 | 90 | 90 |
| CCOC(=O)[C@@H]1C=C[C@H](NC(=O)C2(OC)CC(c3cc(F)cc(F)c3)=NO2)C1 (stereo partly shown) [Example I-020] | 90 | 100 | 80 | 90 | 90 | 80 | 100 | 90 | 80 | – | 80 | 100 | 90 | 80 |
| CCOC(=O)[C@@H]1C=C[C@H](NC(=O)C2(C(F)(F)F)CC(c3cc(C)cc(Cl)c3)=NO2)C1 (stereo partly shown) [Example I-023] | 90 | 90 | 80 | 90 | 90 | 80 | 90 | 90 | 80 | 100 | – | 80 | 90 | 80 |
| Cc1cc(Cl)cc(C2=NOC(C(=O)N[C@H]3C=C[C@@H](C(=O)OCCCl)C3)(C(F)(F)F)C2)c1 (stereo partly shown) [Example I-028] | 90 | 100 | 80 | 90 | 90 | 80 | 90 | 80 | – | 100 | 80 | 80 | 80 | 80 |
| CCOCCOC(=O)[C@@H]1C=C[C@H](NC(=O)[C@@]2(C(F)(F)F)CC(c3cc(F)cc(F)c3)=NO2)C1 [Example I-077] | 90 | 100 | 80 | 90 | 80 | – | 80 | 80 | 80 | 80 | 80 | 80 | 90 | 90 |
| C[C@]1(C(=O)N[C@@H]2C=C(C(=O)O)CC2)CC(c2cc(F)cc(F)c2)=NO1 [Example V-01] | 100 | – | 90 | 100 | 80 | 80 | 80 | 80 | 90 | 90 | 90 | 90 | 80 | 90 |
